Measured values taken from US10214546B2, “Btk inhibitors” (MERCK SHARP & DOHME CORP., priority 2014, dated 2019).
Read-outs that look alike come from different tables or passages of the source.

Legend:
[1] = target: BTK enzyme (recombinant full-length BTK, hBTK) (Homo sapiens (Human), UniProt Q06187); experiment: BTK enzymatic activity LANCE TR-FRET assay; assay type: biochemical; settings: 50 pM hBTK, 25 μM ATP, 2 μM biotin-A5-peptide; compound range 1 μM to 0.017 nM; read-out: BTK binding IC50
[2] = test system: adenosine uptake into HeLa cells; experiment: [3H]Adenosine uptake assay in HeLa cells; assay type: cell-based; settings: [3H]adenosine accumulation in HeLa cells, compound range 10 μM to 0.032 nM, read-out: ADU inhibition IC50
Procedure, shortened: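 HeLa cells in HBSS + 5% FBS were preincubated 30 min at ambient temperature with compound (ten-point 1:3 series, 10 µM–[…] final), then given [3H]adenosine (added as a 500 nM solution) for 60 min. Cell-associated label was read by scintillating-plate proximity counting; IC50 from 4-parameter fit of cps versus log concentration.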

BTK enzyme (recombinant full-length BTK, hBTK), sequence (Q06187 whole entry): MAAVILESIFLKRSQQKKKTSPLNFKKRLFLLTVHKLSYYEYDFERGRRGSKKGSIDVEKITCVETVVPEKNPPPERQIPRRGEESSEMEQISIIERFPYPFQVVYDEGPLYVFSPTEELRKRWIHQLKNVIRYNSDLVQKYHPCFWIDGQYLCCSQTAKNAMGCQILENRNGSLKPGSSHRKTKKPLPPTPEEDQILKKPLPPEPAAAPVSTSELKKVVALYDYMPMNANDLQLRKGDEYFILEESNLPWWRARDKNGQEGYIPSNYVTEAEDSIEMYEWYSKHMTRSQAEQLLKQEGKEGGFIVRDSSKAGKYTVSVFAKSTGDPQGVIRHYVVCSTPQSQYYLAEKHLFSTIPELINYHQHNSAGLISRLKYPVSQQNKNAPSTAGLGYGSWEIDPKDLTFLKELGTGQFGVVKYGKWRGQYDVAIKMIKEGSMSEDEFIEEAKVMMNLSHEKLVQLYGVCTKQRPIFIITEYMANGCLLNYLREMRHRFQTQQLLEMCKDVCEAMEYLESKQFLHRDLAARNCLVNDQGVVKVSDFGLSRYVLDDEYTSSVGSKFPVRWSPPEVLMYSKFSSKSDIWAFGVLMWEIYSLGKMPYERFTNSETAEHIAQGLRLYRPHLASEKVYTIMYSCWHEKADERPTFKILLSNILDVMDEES

Row | SMILES | IC50 [1] [nM] | IC50 ([2]; Homo sapiens, HeLa) [nM] | IC50 [2] [nM]
1 | COc1cc([C@](C)(O)c2cccc(C(F)(F)F)c2)ccc1-c1nc([C@@H]2CC[C@H]3CCC(=O)N3C2)n2ccnc(N)c12 [Example 142, (6R,8aS)-6-[8-amino-1-(4-{(1R)-1-hydroxy-1-[3-(trifluoromethyl)phenyl]ethyl}-2-methoxyphenyl)imidazo [1,5-a]pyrazin-3-yl]hexahydroindolizin-3(2H)-one] | 2 | 7160 | –
2 | CC(O)(c1ccc(-c2nc([C@@H]3CC[C@H]4CCC(=O)N4C3)n3ccnc(N)c23)cc1)C1CC2CCC1CC2 (stereo partly drawn) [Example 143, (6R,8aS)-6-{8-amino-1-[4-(1-bicyclo[2.2.2]oct-2-yl-1-hydroxyethyl)phenyl]imidazo[1,5-a]pyrazin-3-yl}hexahydroindolizin-3(2H)-one] | 900 | – | 839
3 | CC(O)(c1ccc(-c2nc([C@@H]3CC[C@H]4CCC(=O)N4C3)n3ccnc(N)c23)cc1)c1cccc(OC(F)F)c1 (stereo partly drawn) [Example 144, (6R,8aS)-6-[8-amino-1-(4-{1-[3-(difluoromethoxy)phenyl]-1-hydroxyethyl}phenyl)imidazo[1,5-a]pyrazin-3-yl]hexahydroindolizin-3(2H)-one] | 67.6 | – | 985
4 | CC(O)(c1ccc(-c2nc([C@@H]3CC[C@H]4CCC(=O)N4C3)n3ccnc(N)c23)cc1)c1cc(C(F)(F)F)ccc1F (stereo partly drawn) [Example 145, (6R,8aS)-6-[8-amino-1-(4-{1-[2-fluoro-5-(trifluoromethyl)phenyl]-1-hydroxyethyl}phenyl)imidazo[1,5-a]pyrazin-3-yl]hexahydroindolizin-3(2H)-one] | 1000 | 1220 | –
5 | CC(O)(c1ccc(-c2nc([C@@H]3CC[C@H]4CCC(=O)N4C3)n3ccnc(N)c23)cc1)c1cc(C(F)(F)F)cc(C(F)(F)F)c1 (stereo partly drawn) [Example 146, (6R,8aS)-6-[8-amino-1-(4-{1-[3,5-bis(trifluoromethyl)phenyl]-1-hydroxyethyl}phenyl)imidazo[1,5-a]pyrazin-3-yl]hexahydroindolizin-3(2H)-one] | 752 | 1490 | –
6 | CC(O)(c1ccc(-c2nc([C@@H]3CC[C@H]4CCC(=O)N4C3)n3ccnc(N)c23)cc1)C1CC2CCC1CC2 (stereo partly drawn) [Example 147, (6R,8aS)-6-{8-amino-1-[4-(1-bicyclo[2.2.2]oct-2-yl-1-hydroxyethyl)phenyl]imidazo[1,5-a]pyrazin-3-yl}hexahydroindolizin-3(2H)-one] | 26.2 | – | 3830
7 | CC(O)(c1ccc(-c2nc([C@@H]3CC[C@H]4CCC(=O)N4C3)n3ccnc(N)c23)cc1)c1cccc(OC(F)F)c1 (stereo partly drawn) [Example 148, (6R,8aS)-6-[8-amino-1-(4-{1-[3-(difluoromethoxy)phenyl]-1-hydroxyethyl}phenyl)imidazo[1,5-a]pyrazin-3-yl]hexahydroindolizin-3(2H)-one] | 0.2 | – | 2990
8 | CC(O)(c1ccc(-c2nc([C@@H]3CC[C@H]4CCC(=O)N4C3)n3ccnc(N)c23)cc1)C1CC2CCC1CC2 (stereo partly drawn) [Example 149, (6R,8aS)-6-{8-amino-1-[4-(1-bicyclo[2.2.2]oct-2-yl-1-hydroxyethyl)phenyl]imidazo[1,5-a]pyrazin-3-yl}hexahydroindolizin-3(2H)-one] | 888 | – | 701
9 | CC(O)(c1ccc(-c2nc([C@@H]3CC[C@H]4CCC(=O)N4C3)n3ccnc(N)c23)cc1)C1CC2CCC1CC2 (stereo partly drawn) [Example 150, (6R,8aS)-6-{8-amino-1-[4-(1-bicyclo[2.2.2]oct-2-yl-1-hydroxyethyl)phenyl]imidazo[1,5-a]pyrazin-3-yl}hexahydroindolizin-3(2H)-one] | 1.6 | – | 2410
10 | CC(O)(c1ccc(-c2nc([C@@H]3CC[C@H]4CCC(=O)N4C3)n3ccnc(N)c23)cc1)c1cc(C(F)(F)F)ccc1F (stereo partly drawn) [Example 151, (6R,8aS)-6-[8-amino-1-(4-{1-[2-fluoro-5-(trifluoromethyl)pheny]-1-hydroxyethyl}phenyl)imidazo[1,5-a]pyrazin-3-yl]hexahydroindolizin-3(2H)-one] | 12.1 | – | 2040
11 | C[C@@](O)(c1ccc(-c2nc([C@@H]3CC[C@H]4CCC(=O)N4C3)n3ccnc(N)c23)cc1)c1cccc(-n2ccnc2)c1 [Example 152, (6R,8aS)-6-[8-amino-1-(4-{(1R)-1-hydroxy-1-[3-(1H-imidazol-1-yl)phenyl]ethyl}phenyl)imidazo[1,5-a]pyrazin-3-yl]hexahydroindolizin-3(2H)-one] | 39.1 | 2960 | –
12 | C[C@](O)(c1ccc(-c2nc([C@@H]3CC[C@H]4CCC(=O)N4C3)n3ccnc(N)c23)cc1)c1cccc(-n2ccnc2)c1 [Example 153, (6R,8aS)-6-[8-amino-1-(4-{(1S)-1-hydroxy-1-[3-(1H-imidazol-1-yl)phenyl]ethyl}phenyl)imidazo[1,5-a]pyrazin-3-yl]hexahydroindolizin-3(2H)-one] | 1000 | 1960 | –
13 | C[C@](O)(c1ccc(-c2nc([C@@H]3CC[C@H]4CCC(=O)N4C3)n3ccnc(N)c23)cc1)c1ccnc(C(F)(F)F)c1 [Example 154, (6R,8aS)-6-[8-amino-1-(4-{(1S)-1-hydroxy-1-[2-(trifluoromethyl)pyridin-4-yl]ethyl}phenyl)imidazo [1,5-a]pyrazin-3-yl]hexahydroindolizin-3(2H)-one] | 1000 | 464 | –
14 | C[C@@](O)(c1ccc(-c2nc([C@@H]3CC[C@H]4CCC(=O)N4C3)n3ccnc(N)c23)cc1)c1ccnc(C(F)(F)F)c1 [Example 155, (6R,8aS)-6-[8-amino-1-(4-{(1R)-1-hydroxy-1-[2-(trifluoromethyl)pyridin-4-yl]ethyl}phenyl)imidazo [1,5-a]pyrazin-3-yl]hexahydroindolizin-3(2H)-one] | 858 | 2750 | –
15 | C[C@@](O)(c1ccc(-c2nc([C@H]3CC[C@@H]4COCC(=O)N4C3)n3ccnc(N)c23)cc1)c1cccc(C(F)(F)F)c1 [Example 156, (7S,9aR)-7-(8-amino-1-(4-{(1R)-1-hydroxy-1-[3-(trifluoromethyl)pheny]ethyl}phenyl)imidazo [1,5-a]pyrazin-3-yl]hexahydropyrido[2,1-c][1,4]oxazin-4(3H)-one] | 72.3 | 1470 | –
16 | C[C@@](O)(c1ccc(-c2nc([C@@H]3CC[C@H]4COCC(=O)N4C3)n3ccnc(N)c23)cc1)c1cccc(C(F)(F)F)c1 [Example 157, (7R,9aS)-7-[8-amino-1-(4-{(1R)-1-hydroxy-1-[3-(trifluoromethyl)phenyl]ethyl}phenyl)imidazo [1,5-a]pyrazin-3-yl]hexahydropyrido[2,1-c][1,4)oxazin-4(3H)-one] | 1.9 | 2220 | –
17 | C[C@@](O)(c1ccc(-c2nc([C@@H]3CC[C@H]4CCC(=O)N4C3)n3c(F)cnc(N)c23)cc1)c1cccc(C(F)(F)F)c1 [Example 158, (6R,8aS)-6-[8-amino-5-fluoro-1-(4-{(1R)-1-hydroxy-1-[3-(trifluoromethyl)phenyl]ethyl}phenyl)imidazo [1,5-a]pyrazin-3-yl]hexahydroindolizin-3(2H)-one] | 4.7 | 6300 | –
18 | CC(O)(c1ccc(-c2nc([C@@H]3CC[C@H]4CCC(=O)N4C3)n3ccnc(N)c23)cc1)c1cccc(C2CC2(F)F)c1 (stereo partly drawn) [Example 159, (6R,8aS)-6-[8-amino-1-(4-{1-[3-(2,2-difluorocyclopropyl)phenyl]-1-hydroxyethyl}phenyl)imidazo[1,5-a]pyrazin-3-yl]hexahydroindolizin-3(2H)-one] | 0.1 | – | 1880
19 | CC(O)(c1ccc(-c2nc([C@@H]3CC[C@H]4CCC(=O)N4C3)n3ccnc(N)c23)cc1)c1cccc(C2CC2(F)F)c1 (stereo partly drawn) [Example 160, (6R,8aS)-6-[8-amino-1-(4-{1-[3-(2,2-difluorocyclopropyl)phenyl]-1-hydroxyethyl}phenyl)imidazo[1,5-a]pyrazin-3-yl]hexahydroindolizin-3(2H)-one] | 0.07 | – | 1840
20 | CC1(C)CC(=O)N2C[C@@H](c3nc(-c4ccc([C@@](C)(O)c5cccc(C(F)(F)F)c5)cc4)c4c(N)nccn34)CC[C@@H]21 [Example 161, (6S,8aR)-6-[8-amino-1-(4-{(1R)-1-hydroxy-1-[3-(trifluoromethyl)phenyl]ethyl}phenyl)imidazo [1,5-a]pyrazin-3-yl]-1,1-dimethylhexahydroindolizin-3(2H)-one] | 0.27 | 2140 | –
21 | CCOc1cc(C(C)(O)c2cccc(C(F)(F)F)c2)ccc1-c1nc([C@@H]2CC[C@H]3CCC(=O)N3C2)n2ccnc(N)c12 (stereo partly drawn) [Example 162, (6R,8aS)-6-[8-amino-1-(2-ethoxy-4-{1-hydroxy-1-[3-(trifluoromethyl)phenyl]ethyl}phenyl)imidazo [1,5-a]pyrazin-3-yl]hexahydroindolizin-3(2H)-one] | 0.63 | 4210 | –
22 | CC1(C)CC(=O)N2C[C@@H](c3nc(-c4ccc([C@@](C)(O)c5cccc(C(F)(F)F)c5)cc4)c4c(N)nccn34)CC[C@@H]21 [Example 163, (6S,8aR)-6-[8-amino-1-(4-{(1R)-1-hydroxy-1-[3-(trifluoromethyl)phenyl]ethyl}phenyl)imidazo [1,5-a]pyrazin-3-yl]-1,1-dimethylhexahydroindolizin-3(2H)-one] | 169 | – | 1560
23 | CC(O)(c1ccc(-c2nc([C@@H]3CC[C@H]4CCC(=O)N4C3)n3ccnc(N)c23)cc1)c1cccc(C2CC2(F)F)c1 (stereo partly drawn) [Example 164, (6R,8aS)-6-[8-amino-1-(4-{1-[3-(2,2-difluorocyclopropyl)phenyl]-1-hydroxyethyl}phenyl)imidazo[1,5-a]pyrazin-3-yl]hexahydroindolizin-3(2H)-one] | 48 | – | 830
